{"source": "patent US10987322B2", "about": "“Immunoregulatory agents” (FLEXUS BIOSCIENCES, INC., priority 2014, dated 2021)"}
{"target": "IDO (Homo sapiens, UniProt P14902)", "sequence (P14902 whole entry)": "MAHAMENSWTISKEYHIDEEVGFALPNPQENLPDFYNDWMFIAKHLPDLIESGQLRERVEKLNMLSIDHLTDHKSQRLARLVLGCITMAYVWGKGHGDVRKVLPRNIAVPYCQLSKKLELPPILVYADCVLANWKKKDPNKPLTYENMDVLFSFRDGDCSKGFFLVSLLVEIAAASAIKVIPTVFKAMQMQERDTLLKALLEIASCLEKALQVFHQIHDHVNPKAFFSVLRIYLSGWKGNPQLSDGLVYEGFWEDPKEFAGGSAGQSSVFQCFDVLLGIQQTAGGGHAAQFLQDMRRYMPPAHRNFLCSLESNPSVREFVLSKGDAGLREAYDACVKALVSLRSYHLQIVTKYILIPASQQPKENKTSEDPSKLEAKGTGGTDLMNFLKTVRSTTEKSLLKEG", "assay": "IDO enzyme activity assay", "format": "biochemical", "conditions": "read-out: Potency: IDO IC50", "protocol": "An IDO enzyme assay and cellular production of kynurenine (KYN) is described in Sarkar, S. A. et al., Diabetes 56:72-79 (2007). Briefly, all chemicals can be purchased from Sigma-Aldrich (St. Louis, Mo.) unless specified otherwise. Groups of 1,000 human islets can be cultured for 24 h in 1 mL medium with cytokines, recovered by centrifugation for 5 min at 800×g and sonicated in 150 μL PBS containing a protease inhibitor cocktail (Set 2; Calbiochem, EMD Biosciences, San Diego, Calif.). The sonicate can be centrifuged for 10 min at 10,000×g, and the supernatant can be assayed in triplicate by incubating a 40 μl sample with an equal volume of 100 mmol/L potassium phosphate buffer, pH 6.5, containing 40 mmol/L ascorbic acid (neutralized to pH 7.0), 100 μmol/L methylene blue, 200 μg/mL catalase, and 400 μmol/l L-Trp for 30 min at 37° C. The assay can be terminated by the addition of 16 μL 30% (w/v) trichloroacetic acid (TCA) and further incubated at 60° C. for 15 min to hydrolyze N-formylkynurenine to KYN. The mixture can then be centrifuged at 12,000 rpm for 15 min, and KYN can be quantified by mixing equal volume of supernatant with 2% (w/v) Ehrlich's reagent in glacial acetic acid in 96-well microtiter plate and reading the absorbance at 480 nm using L-KYN as standard. Protein in the islet samples can be quantified by Bio-Rad Protein assay at 595 nm. For the detection of L-KYN in the islet culture supernatants, proteins can be precipitated with 5% (w/v) TCA and centrifuged at 12,000 rpm for 15 min, and determination of KYN in the supernatant with Ehrlich's reagent can be determined as described above. IL-4 ([…]; 500-2,000 units/mL) and 1-α-methyl Trp (1-MT; 40 μmol/L) can be added to the incubation media as indicated. This assay can also form the basis of a cell-based assay, and may be quantified via LCMS/MS as an alternative to UV/Vis detection.\ncDNA clones for both human and mouse IDO have been isolated and verified by sequencing and are commercially available. In order to prepare IDO for biochemical studies, C-terminal His-tagged IDO protein can be produced in E. coli using the IPTG-inducible pET5a vector system and isolated over a nickel column. The yield of the partially purified protein can be verified by gel electrophoresis and the concentration estimated by comparison to protein standards. To assay IDO enzymatic activity, a 96-well plate spectraphotometric assay for kynurenine production can be run following published procedures (see, e.g., Littlejohn, T. K., et al. (2000) Prot. Exp. Purif. 19:22-29). To screen for IDO inhibitory activity, compounds can be evaluated at a single concentration of, for example, 200 μM against 50 ng of IDO enzyme in 100 μL reaction volumes with tryptophan added at increasing concentrations at, for example, 0, 2, 20, and 200 μM. Kynurenine production can be measured at 1 hour.", "units": {"IC50": "µM"}}
{"smiles": "O/N=C(\\Nc1cccc(Cl)c1)C1CCCC1", "IC50": "< 10"}
{"smiles": "CC(C)(C)C/C(=N/O)Nc1cccc(Cl)c1", "IC50": "< 100"}
{"smiles": "CCCC/C(=N/O)Nc1cccc(Cl)c1", "IC50": "< 1"}
{"smiles": "O/N=C(/CC(O)C1CCCCC1)Nc1cccc(Cl)c1", "note": "(stereo not drawn)", "IC50": "< 10"}
{"smiles": "O/N=C(/CC(O)C1CCCCC1)Nc1cccc(F)c1", "note": "(stereo not drawn)", "IC50": "< 100"}
{"smiles": "O/N=C(/CC(O)C1CCCCC1)Nc1ccc(Cl)c(F)c1", "note": "(stereo not drawn)", "IC50": "< 100"}
{"smiles": "CC(C)CC/C(=N/O)Nc1cccc(Cl)c1", "IC50": "< 1"}
{"smiles": "CC(C)C/C(=N/O)Nc1cccc(Cl)c1", "IC50": "< 1"}
{"smiles": "O/N=C(/CC1CCCC1)Nc1cccc(Cl)c1", "IC50": "< 1"}
{"smiles": "O/N=C(/CC(O)C1CCCCC1)Nc1cc(Cl)cc(Cl)c1", "note": "(stereo not drawn)", "IC50": "< 10"}
{"smiles": "O/N=C(/CC(O)C1CCCCC1)Nc1cc(F)cc(Cl)c1", "note": "(stereo not drawn)", "IC50": "< 100"}
{"smiles": "O/N=C(/CCC1CCCC1)Nc1cccc(Cl)c1", "IC50": "< 1"}
{"smiles": "CCC/C(=N/O)Nc1cccc(Cl)c1", "IC50": "< 1"}
{"smiles": "CC/C(=N/O)Nc1cccc(Cl)c1", "IC50": "< 10"}
{"smiles": "O/N=C(/CC(O)C1CCCCC1)Nc1ccc(F)c(F)c1", "note": "(stereo not drawn)", "IC50": "< 100"}
{"smiles": "OCCCC/C(=N/O)Nc1cccc(Cl)c1", "IC50": "< 10"}
{"smiles": "O/N=C(/CC1CCCC1O)Nc1cccc(Cl)c1", "note": "(stereo not drawn)", "IC50": "< 10"}
{"smiles": "O/N=C(/CC1CC1)Nc1cccc(Cl)c1", "IC50": "< 1"}
{"smiles": "CCCCC/C(=N/O)Nc1cccc(Cl)c1", "IC50": "< 1"}
{"smiles": "O/N=C(/CCC1CCCCC1)Nc1cccc(Cl)c1", "IC50": "< 1"}
{"smiles": "O/N=C(/CC1CCCO1)Nc1cccc(Cl)c1", "note": "(stereo not drawn)", "IC50": "< 10"}
{"smiles": "O/N=C(/CC(O)C1CCCCC1)Nc1cccc(C(F)(F)F)c1", "note": "(stereo not drawn)", "IC50": "< 100"}
{"smiles": "CCCCCC/C(=N/O)Nc1cccc(Cl)c1", "IC50": "< 1"}
{"smiles": "O/N=C(/CC1CCCCC1)Nc1cccc(Cl)c1", "IC50": "< 1"}
